Columns and labels:
human PBMCs = assay: CD3/CD28 stimulated IL-2 release NECA reversal assay in human PBMCs; format: cell-based; conditions: PBMC, CD3/CD28 antibody stimulated, 1 uM NECA, 24 hours, IL-2 in culture supernatant;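 also: dose-response as % inhibition where 100% equals no-NECA control wells with CD3/CD28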
How it was run: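 PBMCs from citrated donor blood, 50,000 cells/well on plate-bound CD3 antibody (1 ug/ml), with 1 ug/ml CD28 antibody, 1 uM NECA and antagonist at 0.003-10 μM final. After 24 h at 37° C, supernatant IL-2 was measured by MSD immunoassay.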

[1] = target: T1, human Adenosine A2b receptor (Homo sapiens, UniProt P29275); assay: Adenosine receptor TR-FRET binding assay (CA200645 displacement), A2b; conditions: 30 nM CA200645, CHO cell membranes, 2 hours at room temperature
T1 construct: expressed in transfected cells; host or cells: CHO cell membranes
T1 sequence (P29275 1-332): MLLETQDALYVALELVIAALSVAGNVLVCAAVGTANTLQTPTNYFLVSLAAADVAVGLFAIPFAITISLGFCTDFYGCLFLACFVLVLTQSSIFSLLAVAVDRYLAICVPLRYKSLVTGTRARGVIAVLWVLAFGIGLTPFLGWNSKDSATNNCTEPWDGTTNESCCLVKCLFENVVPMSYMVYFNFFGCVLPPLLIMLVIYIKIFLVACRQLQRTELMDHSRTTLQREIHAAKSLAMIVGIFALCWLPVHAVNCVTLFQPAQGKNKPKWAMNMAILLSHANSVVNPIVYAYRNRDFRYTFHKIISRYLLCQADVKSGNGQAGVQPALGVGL

[2] = test system: CD8+ T cells in human whole blood; assay: Measurement of pCREB in CD8+ T cells in human whole blood; format: cell-based; conditions: T-cell, 1 h; heparinised human whole blood, rolipram, 3 μM NECA, 60 min, phospho-CREB in CD8+ T cells by FACS
Description: Heparinised human whole blood was pre-incubated at 37° C. with serial dilutions of A2a antagonists for 20 min. and the phosphodiesterase inhibitor rolipram to amplify the pCREB response. The adenosine receptor agonist NECA is then added at a final concentration of 3 μM and following a 60 min incubation the blood is fixed and red blood cells lysed. White blood cells are isolated, permeabilized and stained with directly conjugated fluorescent antibodies to phospho-CREB (Alexa Fluor 488) and CD8 (Alexa Fluor 647) and the level of phospho-CREB in CD8+ T cells is measured by FACS using a BD Accuri C6 Flow Cytometer.

[3] = target: T2, human Adenosine A2a receptor (Homo sapiens, UniProt P29274); assay: Adenosine receptor TR-FRET binding assay (CA200645 displacement), A2a; conditions: 100 nM CA200645, CHO cell membranes, 2 hours at room temperature
T2 construct: expressed in transfected cells; host or cells: CHO cell membranes
T2 sequence (P29274 whole entry): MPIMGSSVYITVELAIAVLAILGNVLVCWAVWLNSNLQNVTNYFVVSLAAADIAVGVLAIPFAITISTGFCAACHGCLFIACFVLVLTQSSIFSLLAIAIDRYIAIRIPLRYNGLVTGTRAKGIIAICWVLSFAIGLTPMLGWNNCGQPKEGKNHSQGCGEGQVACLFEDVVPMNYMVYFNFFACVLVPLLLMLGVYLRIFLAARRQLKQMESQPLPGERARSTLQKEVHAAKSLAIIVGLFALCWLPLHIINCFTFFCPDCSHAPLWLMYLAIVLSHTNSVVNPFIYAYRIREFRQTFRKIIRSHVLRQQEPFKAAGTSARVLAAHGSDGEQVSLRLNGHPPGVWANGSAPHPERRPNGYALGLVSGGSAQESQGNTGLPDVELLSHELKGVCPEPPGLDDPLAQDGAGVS

[4] = target: T3, human Adenosine A3 receptor (Homo sapiens, UniProt P0DMS8); assay: Adenosine receptor TR-FRET binding assay (CA200645 displacement), A3
T3 sequence (P0DMS8 1-318): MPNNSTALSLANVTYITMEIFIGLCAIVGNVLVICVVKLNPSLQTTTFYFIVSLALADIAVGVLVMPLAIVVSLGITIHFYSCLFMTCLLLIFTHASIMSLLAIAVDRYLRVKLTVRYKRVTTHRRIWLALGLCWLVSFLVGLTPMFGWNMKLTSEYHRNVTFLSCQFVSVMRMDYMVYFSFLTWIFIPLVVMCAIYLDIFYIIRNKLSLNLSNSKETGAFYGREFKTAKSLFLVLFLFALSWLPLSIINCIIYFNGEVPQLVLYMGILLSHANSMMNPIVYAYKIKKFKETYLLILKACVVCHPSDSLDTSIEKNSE

[5] = target: T4, human Adenosine A1 receptor (Homo sapiens, UniProt P30542); assay: Adenosine receptor TR-FRET binding assay (CA200645 displacement), A1
T4 sequence (P30542 1-326): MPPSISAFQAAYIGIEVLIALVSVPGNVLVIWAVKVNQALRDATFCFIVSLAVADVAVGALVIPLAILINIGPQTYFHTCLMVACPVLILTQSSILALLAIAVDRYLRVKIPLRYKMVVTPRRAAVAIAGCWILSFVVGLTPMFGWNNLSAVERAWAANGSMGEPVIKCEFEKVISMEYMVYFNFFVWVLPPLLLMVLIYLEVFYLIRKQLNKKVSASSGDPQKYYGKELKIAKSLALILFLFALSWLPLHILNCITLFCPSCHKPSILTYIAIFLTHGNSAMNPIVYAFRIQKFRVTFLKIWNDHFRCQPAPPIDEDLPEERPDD

Row | Compound | IC50 (human PBMCs) [nM] | Ki [1] [nM] | IC50 [2] [nM] | Ki [3] [nM] | Ki [4] [nM] | Ki [5] [nM]
1 | CC(=O)Nc1ccn2nc(-c3cccc(C#N)c3)c(-c3cc(C)nc(Cl)c3)c2n1 [Example 94.1, N-[3-(2-Chloro-6-methyl-4-pyridyl)-2-(3-cyanophenyl)pyrazolo[1,5-a]pyrimidin-5-yl]acetamide] | 26 | 14 | 750 | 1.8 | > 1000 | 99
2 | Cc1cc(-c2c(-c3cccc(C#N)c3)nn3ccc(C(=O)NCC4CCNC(=O)C4)nc23)cc(C)n1 (stereo not drawn) [Example 92.4] | 33 | 23 | 830 | 4.4 | > 1000 | 362
3 | Cc1cc(-c2c(-c3cccc(C#N)c3)nn3ccc(OC4CCNCC4)nc23)cc(Cl)n1 [Example 24, 3-[3-(2-Chloro-6-methyl-4-pyridyl)-5-(4-piperidyloxy)pyrazolo[1,5-a]pyrimidin-2-yl]benzonitrile] | 51 | 16 | 3630 | 0.6 | > 1000 | 216
4 | Cc1cc(-c2c(-c3cccc(C#N)c3)nn3ccc(C(=O)NCC4(C)CCCNC4)nc23)cc(Cl)n1 (stereo not drawn) [Example 7.18, 3-(2-Chloro-6-methyl-4-pyridyl)-2-(3-cyanophenyl)-N-[(3-methyl-3-piperidyl)methyl]pyrazolo[1,5-a]pyrimidine-5-carboxamide] | 19 | 14 | 470 | 1 | > 1000 | 20
5 | CO[C@H]1CN(C)C[C@@H]1NC(=O)c1ccn2nc(-c3cccc(C#N)c3)c(-c3cc(C)nc(Cl)c3)c2n1 [Example 6.14, 3-(2-Chloro-6-methyl-4-pyridyl)-2-(3-cyanophenyl)-N-[(3S,4S)-4-methoxy-1-methyl-pyrrolidin-3-yl]pyrazolo[1,5-a]pyrimidine-5-carboxamide] | 18 | 60 | 370 | 1.1 | > 1000 | 231
6 | Cc1cc(-c2c(-c3cccc(C#N)c3)nn3ccc(N[C@@H](C)C(C)(C)O)nc23)cc(Cl)n1 [Example 2.15] | 59 | 239 | 920 | 2 | > 1000 | 896
7 | Cc1cc(-c2c(-c3cccc(C#N)c3C)nn3ccc(C(=O)N[C@H](C)C(C)(C)O)nc23)cc(C)n1 [Example 104, 2-(3-Cyano-2-methyl-phenyl)-3-(2,6-dimethyl-4-pyridyl)-N-[(1R)-2-hydroxy-1,2-dimethyl-propyl]pyrazolo[1,5-a]pyrimidine-5-carboxamide] | 10 | 330 | 190 | 0.9 | > 1000 | 735
8 | Cc1cc(-c2c(-c3cccc(C#N)c3)nn3ccc(N[C@@H]4COC[C@@H]4O)nc23)cc(Cl)n1 [Example 2.16] | 7 | 4 | 390 | 2.1 | > 1000 | 232
9 | Cc1cc(-c2c(-c3cccc(C#N)c3)nn3ccc(C(=O)NCC(C)(O)CO)nc23)cc(C)n1 (stereo not drawn) [Example 92.1] | 14 | 4 | 110 | 0.5 | > 1000 | 222
10 | Cc1cc(-c2c(-c3cccc(C#N)c3)nn3ccc(C(=O)NC45CC(O)(C4)C5)nc23)cc(C)n1 [Example 92.2] | 17 | 25 | 350 | 1.6 | > 1000 | 324
11 | Cc1cc(-c2c(-c3cccc(C#N)c3)nn3ccc(N4CC5CCC(C4)O5)nc23)cc(Cl)n1 [Example 2.12] | 32 | 22 | 4190 | 1.5 | 2330 | 87
12 | Cc1cc(-c2c(-c3cccc(C#N)c3)nn3ccc(NC(=N)N)nc23)cc(Cl)n1 [Example 16.1, 1-[3-(2-Chloro-6-methyl-4-pyridyl)-2-(3-cyanophenyl)pyrazolo[1,5-a]pyrimidin-5-yl]guanidine] | 77 | 8 | 1050 | 1.4 | 2600 | 116
13 | Cc1cc(-c2c(-c3cccc(C#N)c3)nn3ccc(C(=O)NCCC(C)(C)N)nc23)cc(C)n1 [Example 96, N-(3-Amino-3-methyl-butyl)-2-(3-cyanophenyl)-3-(2,6-dimethyl-4-pyridyl)pyrazolo[1,5-a]pyrimidine-5-carboxamide] | 10 | 7 | 360 | 0.5 | > 1000 | 143
14 | Cc1cc(-c2c(-c3cccc(C#N)c3)nn3ccc(N/C(=N\C#N)NCC(C)(C)O)nc23)cc(Cl)n1 [Example 32.2, 1-[3-(2-Chloro-6-methyl-4-pyridyl)-2-(3-cyanophenyl)pyrazolo[1,5-a]pyrimidin-5-yl]-2-cyano-3-(2-hydroxy-2-methyl-propyl)quanidine] | 16 | 5 | 490 | 0.8 | > 1000 | 29
15 | Cc1cc(-c2c(-c3cccc(C#N)c3)nn3ccc(C(=O)N(C)CC(C)(C)O)nc23)cc(Cl)n1 [Example 6.18, 3-(2-Chloro-6-methyl-4-pyridyl)-2-(3-cyanophenyl)-N-(2-hydroxy-2-methyl-propyl)-N-methyl-pyrazolo[1,5-a]pyrimidine-5-carboxamide] | 93 | 13 | 1690 | 4.2 | > 1000 | 125
16 | Cc1cc(-c2c(-c3cccc(C#N)c3)nn3ccc(NC(=O)CC(C)(C)O)nc23)cc(C)n1 [Example 94.4, N-[2-(3-Cyanophenyl)-3-(2,6-dimethyl-4-pyridyl)pyrazolo[1,5-a]pyrimidin-5-yl]-3-hydroxy-3-methyl-butanamide] | 14 | 13 | 150 | 1.7 | > 1000 | 79
17 | Cc1cc(-c2c(-c3cccc(C#N)c3)nn3ccc(C(=O)NC(C)(C)C(C)(C)O)nc23)cc(Cl)n1 [Example 6.23, 3-(2-Chloro-6-methyl-4-pyridyl)-2-(3-cyanophenyl)-N-(2-hydroxy-1,1,2-trimethyl-propyl)pyrazolo[1,5-a]pyrimidine-5-carboxamide] | 5.7 | 74 | 330 | 0.4 | > 1000 | 223
18 | Cc1cc(-c2c(-c3cccc(C#N)c3)nn3ccc(C(=O)NCC(C)(O)CO)nc23)cc(Cl)n1 (stereo not drawn) [Example 6.9, 3-(2-Chloro-6-methyl-4-pyridyl)-2-(3-cyanophenyl)-N-(2,3-dihydroxy-2-methyl-propyl)pyrazolo[1,5-a]pyrimidine-5-carboxamide] | 10 | 2 | 160 | 0.9 | > 1000 | 232
19 | Cc1cc(-c2c(-c3cccc(C#N)c3)nn3ccc(C(=O)N[C@@H](C)C(C)(C)O)nc23)cc(Cl)n1 [Example 6, 3-(2-Chloro-6-methyl-4-pyridyl)-2-(3-cyanophenyl)-N-[(1S)-2-hydroxy-1,2-dimethyl-propyl]pyrazolo[1,5-a]pyrimidine-5-carboxamide] | 2 | 6 | 30 | 0.1 | 945 | 57
